Test results published in patent EP1561465A2, “Methods of use of fluoroquinolone compounds against bacteria” (LG Life Sciences, Ltd., priority 1999, dated 2001).
≈ marks a conversion by molar mass, not a printed value. Like-named read-outs stand apart in the source and are kept apart here.

What was measured:
Assay type in all cases: cell-based
[1] = test system: Streptococcus pyogenes; assay: MIC by NCCLS reference broth microdilution, 450 respiratory tract pathogens; conditions: Streptococcus pyogenes
[2] = test system: Haemophilus influenzae; assay: MIC by agar dilution (NCCLS), 411 isolates Buenos Aires 1998-99; conditions: Haemophilus influenzae (n = 65)
[3] = test system: Staphylococcus epidermidis; assay: MIC by NCCLS broth microdilution, 1100 Japanese clinical isolates 1997-1998; conditions: for MIC50 / MIC90: Staphylococcus epidermidis
[4] = test system: Streptococcus pneumoniae; assay: MIC by two-fold serial agar dilution, Sensitivity Disk agar-N (Kitasato isolates); conditions: Streptococcus pneumoniae; for MIC90: read-out: MIC90; for MIC: read-out: MIC Range; for MIC50: read-out: MIC50
[5] = test system: Enterobacter aerogenes; assay: MIC by NCCLS broth microdilution, 1100 Japanese clinical isolates 1997-1998; conditions: Enterobacter aerogenes (n=35)
[6] = test system: Shigella spp.; assay: MIC by agar dilution (NCCLS M7-A4), 288 enteropathogenic isolates, eight quinolones; conditions: Shigella spp. (n = 21)
[7] = test system: Moraxella catarrhalis; assay: MIC by NCCLS reference broth microdilution, 450 respiratory tract pathogens
[8] = test system: Haemophilus influenzae; assay: as above; conditions: Haemophilus influenzae
[9] = erythromycin resistant C phenotype [MLSB] (n = 20)
[10] = erythromycin resistant I phenotype [MLSB] (n = 20)
[11] = Staphylococcus epidermidis oxacillin resistant (n=43)
[12] = Staphylococcus epidermidis oxacillin susceptible (n=35)
[13] = Haemophilus influenzae (n = 100)

SMILES: C[C@H]1COc2c(N3CCN(C)CC3)c(F)cc3c(=O)c(C(=O)O)cn1c23 [Levofloxacin, levofloxacin]
- MIC ([1]; Streptococcus pyogenes (n = 100)): 0.06 to 2 µg/mL (≈ 0.166 to 5.53 µM)
- MIC [1, 9]: 0.25 to 1 µg/mL (≈ 0.692 to 2.77 µM)
- MIC50 [1, 9]: 0.25 µg/mL (≈ 0.692 µM)
- MIC90 [1, 9]: 0.25 µg/mL (≈ 0.692 µM)
- MIC [1, 10]: 0.25 to 2 µg/mL (≈ 0.692 to 5.53 µM)
- MIC50 [1, 10]: 0.25 µg/mL (≈ 0.692 µM)
- MIC90 [1, 10]: 0.25 µg/mL (≈ 0.692 µM)
- MIC ([1]; erythromycin resistant M phenotype (n = 20)): 0.06 to 1 µg/mL (≈ 0.166 to 2.77 µM)
- MIC ([1]; fully susceptible (n = 20)): 0.25 to 2 µg/mL (≈ 0.692 to 5.53 µM)
- MIC ([1]; multi-drug resistant (n = 20)): 0.25 to 1 µg/mL (≈ 0.692 to 2.77 µM)
- MIC90 [2]: 0.016 µg/mL (≈ 0.0443 µM)
- MIC Range [2]: ≤0.004 to 0.25 µg/mL
- MIC Range [3, 11]: 0.25 to 16 µg/mL
- MIC Range [3, 12]: 0.063 to 8 µg/mL
- MIC50 [3, 11]: 4 µg/mL (≈ 11.1 µM)
- MIC90 [3, 11]: 8 µg/mL (≈ 22.1 µM)
- MIC50 [3, 12]: 0.25 µg/mL (≈ 0.692 µM)
- MIC90 [3, 12]: 4 µg/mL (≈ 11.1 µM)
- MIC90 ([4]; 18 h, Ciprofloxacin-resistant (21), ciprofloxacin MIC ≥8 µg/ml): 16 µg/mL (≈ 44.3 µM)
- MIC ([4]; 18 h, Ciprofloxacin-resistant (21)): 2 to 32 µg/mL (≈ 5.53 to 88.6 µM)
- MIC ([4]; 18 h, Ciprofloxacin-susceptible (94)): 0.25 to 2 µg/mL (≈ 0.692 to 5.53 µM)
- MIC ([4]; 18 h, Erythromycin-resistant (37)): 0.5 to 16 µg/mL (≈ 1.38 to 44.3 µM)
- MIC ([4]; 18 h, Minocycline-resistant (37)): 0.25 to 16 µg/mL (≈ 0.692 to 44.3 µM)
- MIC ([4]; 18 h, Penicillin-resistant (19)): 0.5 to 8 µg/mL (≈ 1.38 to 22.1 µM)
- MIC50 ([4]; Ciprofloxacin-resistant (21)): 16 µg/mL (≈ 44.3 µM)
- MIC50 ([4]; Ciprofloxacin-susceptible (94)): 0.5 µg/mL (≈ 1.38 µM)
- MIC90 ([4]; Ciprofloxacin-susceptible (94)): 1 µg/mL (≈ 2.77 µM)
- MIC50 ([4]; Erythromycin-resistant (37)): 1 µg/mL (≈ 2.77 µM)
- MIC90 ([4]; Erythromycin-resistant (37)): 2 µg/mL (≈ 5.53 µM)
- MIC50 ([4]; Minocycline-resistant (37)): 1 µg/mL (≈ 2.77 µM)
- MIC90 ([4]; Minocycline-resistant (37)): 2 µg/mL (≈ 5.53 µM)
- MIC50 ([4]; Penicillin-resistant (19)): 0.5 µg/mL (≈ 1.38 µM)
- MIC90 ([4]; Penicillin-resistant (19)): 1 µg/mL (≈ 2.77 µM)
- MIC Range [5]: 0.016 to 0.25 µg/mL
- MIC50 ([5]; Klebsiella aerogenes): 0.032 µg/mL (≈ 0.0886 µM)
- MIC90 ([5]; Klebsiella aerogenes): 0.063 µg/mL (≈ 0.174 µM)
- % Susceptible [6]: 100%
- MIC50 [6]: 0.03 µg/mL (≈ 0.083 µM)
- MIC90 [6]: 0.03 µg/mL (≈ 0.083 µM)
- MIC ([7]; Moraxella catarrhalis (n = 50)): 0.00375 to 0.03 µg/mL (≈ 0.0104 to 0.083 µM)
- MIC50 ([7]; Moraxella catarrhalis (n = 50)): 0.015 µg/mL (≈ 0.0415 µM)
- MIC90 ([7]; Moraxella catarrhalis (n = 50)): 0.03 µg/mL (≈ 0.083 µM)
- MIC ([7]; β-lactamase negative (n = 13)): 0.00375 to 0.03 µg/mL (≈ 0.0104 to 0.083 µM)
- MIC50 ([7]; β-lactamase negative (n = 13)): 0.03 µg/mL (≈ 0.083 µM)
- MIC90 ([7]; β-lactamase negative (n = 13)): 0.03 µg/mL (≈ 0.083 µM)
- MIC ([7]; β-lactamase positive (n = 37)): 0.00375 to 0.03 µg/mL (≈ 0.0104 to 0.083 µM)
- MIC50 ([7]; β-lactamase positive (n = 37)): 0.015 µg/mL (≈ 0.0415 µM)
- MIC90 ([7]; β-lactamase positive (n = 37)): 0.03 µg/mL (≈ 0.083 µM)
- MIC [8, 13]: 0.0075 to 0.5 µg/mL (≈ 0.0208 to 1.38 µM)
- MIC50 [8, 13]: 0.015 µg/mL (≈ 0.0415 µM)
- MIC90 ([8]; Haemophilus influenzae (n = 100), read-out: MIC90): 0.03 µg/mL (≈ 0.083 µM)
- MIC ([8]; β-lactamase negative (n = 80)): 0.0075 to 0.5 µg/mL (≈ 0.0208 to 1.38 µM)
- MIC50 ([8]; β-lactamase negative (n = 80)): 0.015 µg/mL (≈ 0.0415 µM)
